Results as given in patent US7618630B2, “Methods of treating multiple myeloma and myeloma-induced bone resorption using integrin antagonists” (Board of Regents, The University of Texas System, priority 1998, dated 2009).
“Also recorded” adds a separate entry of the source. Blank lines part the entries; values can stand above or below the molecule they belong to.

Assays:
[1] = molecular target: VCAM-1 expressed on ST2 mouse bone marrow stromal cells (murine) (UniProt P29533); experiment: cell-based or functional assay
[2] = molecular target: integrin VLA-4 expressed on 5TGM1 murine myeloma cells (murine) (UniProt Q00651); experiment: cell-based or functional assay
[3] = molecular target: VLA-4 (Homo sapiens, UniProt P05556+P13612); details: cited from earlier work
[4] = system: VLA-4 and VLA-5; details: cited from earlier work
[5] = system: 5TGM1 mouse myeloma cells; experiment: α4Ab and melphalan in 5TGM1-inoculated xid-nu-bg mice; format: in vivo
Procedure: Here, we studied the effects of a neutralizing antibody to α4 integrin (α4Ab), which disrupts stromal cells/myeloma cell interactions, on the sensitivity of myeloma to melphalan, a most widely-used chemotherapeutic agent for myeloma, using the 5TGM1 mouse myeloma cells that reproducibly cause extensive osteolysis in tumor-bearing animals. The α4Ab (100-200 μg/mouse, i.p., 2 or 3 times a week) and melphalan (50, 100, 200 μg/mouse, i.p., once a week) were administered following inoculation of 5TGM1 cells in the tail vein in male xid-nu-bg mice.

[6] = system: 5TGM1 myeloma cells; experiment: Survival by onset of hindleg paralysis of 5TGM1-bearing mice, melphalan and PS/2 mAb; format: in vivo, scid/nu/bg mice
Procedure: We also examined the effects of the combined administration of melphalan (100 μg/mouse) and PS/2 mAb on survival of 5TGM1-bearing mice (scid/nu/bg mice). We evaluated survival by the onset of hindleg paralysis (i.e., the onset of hindleg paralysis was the end-point in these experiments). […] Thus, we can reduce the dose of Melphalan to a quarter in the presence of the anti-α4Ab, as compared to melphalan alone.

[7] = system: GFP+ 5TGM1 myeloma cells; experiment: Combination treatment with PS/2 and melphalan in C57BL/KaLwRij model of multiple myeloma; format: in vivo, C57BL/KaLwRij mice; details: day 27
Description: Additive/synergistic effects of the combination of PS/2 mAb and melphalan were seen under most conditions. In these experiments, the 5TGM1 cells injected into the animals were transfected with an expression vector containing the GFP gene. These myeloma cells expressed the GFP protein, allowing the myeloma cells to be tracked directly as GFP+ myeloma cells. These myeloma cells could also be tracked as mIgG2b positive cells. The data were only useful on day 27.

[8] = system: 5TGM1 myeloma cells; experiment: Combined effects of melphalan and anti-alpha 4 integrin Ab in 5TGM1 model (scid/nu/bg mice, day 28); format: in vivo; details: mAb 200 μg first week then 100 μg, melphalan three times
Procedure: In one particular set of experiments on the combined effects of melphalan and anti-alpha 4 integrin Ab in 5TGM1 model, as shown in an experimental protocol in FIG. 7, an initial high dose of 200 μg mAb was given during the first week, followed by a maintenance dose of 100 μg. Melphalan was given three times. Animals (scid/nu/bg mice) were sacrificed at day 28 and serum IgG2b levels (a surrogate marker of tumor burden) and tumor burden in bone were measured (histomorphometric analysis of bones). […] The data were a summary of two experiments combined.

[9] = system: Rank ligand mRNA; experiment: Expression of Rank ligand mRNA in 5TGM1 and ST2 cells; format: cell-based, mouse
Description: Because Rank ligand appears to be an important mediator of OCL formation and may be the final common pathway for the effects of osteoclastogenic cytokines on OCL formation, we have examined the expression of Rank ligand in 5TGM1 and ST2 cells both individually and when cocultured. We find that coculture of 5TGM1 and ST2 cells induces Rank ligand mRNA in the ST2 cells.

[10] = system: 5TGM1 cells; experiment: Osteoclastogenic activity of conditioned medium of sVCAM-1-treated 5TGM1 cells in mouse marrow cultures; format: cell-based; details: 6 days, 1×10^−7 M sVCAM-1
Procedure: Conditioned medium was harvested from 5TGM1 cells cultured in the presence or absence of sVCAM-1 (1×10^−8 to 1×10^−7 Molar) for 24 hours. Osteoclastogenic activity of these conditioned media was assayed in the mouse marrow cultures. Bone marrow cells (1e6/well) were plated into 48-well plates, and cultured in the presence of conditioned media (hatched bars) or control medium (IMDM) containing the same concentrations of sVCAM-1 (open bars). After 6 days, cultures were fixed and the number of TRAP-positive multinucleated OC-like cells (TRAP+MNC) was determined.

[11] = system: 45Ca-labeled fetal rat long bones; experiment: Bone resorption in organ cultures of 45Ca-labeled fetal rat long bones; format: cell-based
Procedure: Conditioned media harvested from 5TGM1 cultures were assayed for bone-resorbing activity by organ cultures of 45Ca-labeled fetal rat long bones as described previously (Mbalaviele 1995). Pregnant rats were injected with 250 uCi of 45Ca (New England Nuclear) on the 18th day of gestation. Radius and ulna bone shafts were obtained from 19-day fetuses by microdissection, and precultured for 24 h in BGJ medium (Sigma) supplemented with 0.1% BSA between air and liquid-phase on stainless mesh grids. Bones were then cultured in the presence of conditioned media (50% v/v) or in control medium for 120 hours. The media were changed once at 48 hours. At the end of the culture, bones were incubated in ice-cold 5% trichloroacetic acid for 2 h, and 45Ca radioactivity in bones and media determined in a liquid scintillation counter. Bone resorption was quantitated as the percentage of 45Ca released into the medium from bones as calculated by: (45Ca count in medium)/(45Ca count in medium and bone)×100.

Sequence of VCAM-1 expressed on ST2 mouse bone marrow stromal cells (murine) (P29533 25-739): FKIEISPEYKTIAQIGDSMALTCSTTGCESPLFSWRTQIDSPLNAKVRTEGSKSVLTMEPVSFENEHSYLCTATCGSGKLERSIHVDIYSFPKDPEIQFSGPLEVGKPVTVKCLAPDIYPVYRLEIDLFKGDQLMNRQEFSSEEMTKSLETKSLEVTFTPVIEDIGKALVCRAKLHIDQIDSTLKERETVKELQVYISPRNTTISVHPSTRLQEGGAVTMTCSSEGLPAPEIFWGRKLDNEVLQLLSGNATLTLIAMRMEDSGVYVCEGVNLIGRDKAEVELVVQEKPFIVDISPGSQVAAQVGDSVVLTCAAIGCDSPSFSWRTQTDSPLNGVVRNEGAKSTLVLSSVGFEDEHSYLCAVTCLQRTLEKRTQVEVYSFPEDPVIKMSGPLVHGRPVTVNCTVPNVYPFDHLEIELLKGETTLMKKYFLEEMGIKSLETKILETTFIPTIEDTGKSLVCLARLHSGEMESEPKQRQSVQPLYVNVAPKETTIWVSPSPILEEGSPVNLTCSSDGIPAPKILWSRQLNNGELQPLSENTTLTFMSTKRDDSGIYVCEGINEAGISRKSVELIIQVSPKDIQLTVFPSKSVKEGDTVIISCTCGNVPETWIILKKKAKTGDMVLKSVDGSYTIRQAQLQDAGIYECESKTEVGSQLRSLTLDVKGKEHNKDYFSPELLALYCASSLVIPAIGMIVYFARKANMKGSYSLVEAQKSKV
Sequence of VLA-4 (P13612 34-1032): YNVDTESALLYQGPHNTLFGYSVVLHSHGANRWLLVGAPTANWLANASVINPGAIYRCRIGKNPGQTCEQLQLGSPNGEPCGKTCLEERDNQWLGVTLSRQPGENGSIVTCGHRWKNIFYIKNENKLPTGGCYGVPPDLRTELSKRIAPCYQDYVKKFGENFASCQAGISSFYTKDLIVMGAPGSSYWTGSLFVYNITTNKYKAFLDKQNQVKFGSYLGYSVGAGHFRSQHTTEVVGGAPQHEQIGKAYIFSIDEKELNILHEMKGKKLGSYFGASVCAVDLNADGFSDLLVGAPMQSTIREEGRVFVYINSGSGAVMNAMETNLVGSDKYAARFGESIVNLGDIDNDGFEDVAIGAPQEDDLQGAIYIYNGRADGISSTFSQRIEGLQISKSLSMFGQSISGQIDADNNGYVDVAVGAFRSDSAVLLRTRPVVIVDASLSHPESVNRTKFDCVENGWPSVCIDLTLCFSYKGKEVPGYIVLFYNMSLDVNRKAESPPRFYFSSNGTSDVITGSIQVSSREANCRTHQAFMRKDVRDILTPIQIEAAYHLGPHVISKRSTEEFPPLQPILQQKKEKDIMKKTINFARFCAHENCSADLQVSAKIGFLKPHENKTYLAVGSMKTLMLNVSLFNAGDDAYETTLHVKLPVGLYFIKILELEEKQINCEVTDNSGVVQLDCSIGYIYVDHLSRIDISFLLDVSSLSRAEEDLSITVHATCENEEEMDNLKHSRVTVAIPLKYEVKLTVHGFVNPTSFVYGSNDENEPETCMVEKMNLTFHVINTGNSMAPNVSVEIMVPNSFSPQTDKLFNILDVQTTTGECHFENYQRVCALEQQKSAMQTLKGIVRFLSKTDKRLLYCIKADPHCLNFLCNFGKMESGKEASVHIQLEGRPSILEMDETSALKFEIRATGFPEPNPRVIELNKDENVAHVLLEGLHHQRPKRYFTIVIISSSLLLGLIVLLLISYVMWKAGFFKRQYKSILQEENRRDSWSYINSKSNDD
Sequence of VLA-4 (P05556 21-798): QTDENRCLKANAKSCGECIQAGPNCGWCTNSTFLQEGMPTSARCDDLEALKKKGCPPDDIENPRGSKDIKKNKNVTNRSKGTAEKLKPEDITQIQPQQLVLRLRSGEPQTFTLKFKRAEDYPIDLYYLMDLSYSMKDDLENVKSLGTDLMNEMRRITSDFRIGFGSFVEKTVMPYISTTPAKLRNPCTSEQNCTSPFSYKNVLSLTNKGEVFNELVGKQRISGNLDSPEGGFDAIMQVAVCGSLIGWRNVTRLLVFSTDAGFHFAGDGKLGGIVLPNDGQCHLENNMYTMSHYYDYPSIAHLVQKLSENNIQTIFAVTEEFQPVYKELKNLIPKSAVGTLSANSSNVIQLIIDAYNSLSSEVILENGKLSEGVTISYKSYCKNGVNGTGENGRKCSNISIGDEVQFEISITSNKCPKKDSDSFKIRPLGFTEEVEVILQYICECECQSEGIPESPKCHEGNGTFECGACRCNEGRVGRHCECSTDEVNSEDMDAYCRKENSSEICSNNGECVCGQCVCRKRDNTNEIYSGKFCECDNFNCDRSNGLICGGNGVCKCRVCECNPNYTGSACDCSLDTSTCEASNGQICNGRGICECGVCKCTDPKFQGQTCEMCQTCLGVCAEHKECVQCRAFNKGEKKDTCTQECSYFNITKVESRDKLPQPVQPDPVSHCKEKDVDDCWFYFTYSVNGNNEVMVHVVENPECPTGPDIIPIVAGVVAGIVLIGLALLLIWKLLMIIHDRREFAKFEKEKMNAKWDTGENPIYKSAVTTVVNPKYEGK
Sequence of integrin VLA-4 expressed on 5TGM1 murine myeloma cells (murine) (Q00651 41-1039, chain 1 of 2): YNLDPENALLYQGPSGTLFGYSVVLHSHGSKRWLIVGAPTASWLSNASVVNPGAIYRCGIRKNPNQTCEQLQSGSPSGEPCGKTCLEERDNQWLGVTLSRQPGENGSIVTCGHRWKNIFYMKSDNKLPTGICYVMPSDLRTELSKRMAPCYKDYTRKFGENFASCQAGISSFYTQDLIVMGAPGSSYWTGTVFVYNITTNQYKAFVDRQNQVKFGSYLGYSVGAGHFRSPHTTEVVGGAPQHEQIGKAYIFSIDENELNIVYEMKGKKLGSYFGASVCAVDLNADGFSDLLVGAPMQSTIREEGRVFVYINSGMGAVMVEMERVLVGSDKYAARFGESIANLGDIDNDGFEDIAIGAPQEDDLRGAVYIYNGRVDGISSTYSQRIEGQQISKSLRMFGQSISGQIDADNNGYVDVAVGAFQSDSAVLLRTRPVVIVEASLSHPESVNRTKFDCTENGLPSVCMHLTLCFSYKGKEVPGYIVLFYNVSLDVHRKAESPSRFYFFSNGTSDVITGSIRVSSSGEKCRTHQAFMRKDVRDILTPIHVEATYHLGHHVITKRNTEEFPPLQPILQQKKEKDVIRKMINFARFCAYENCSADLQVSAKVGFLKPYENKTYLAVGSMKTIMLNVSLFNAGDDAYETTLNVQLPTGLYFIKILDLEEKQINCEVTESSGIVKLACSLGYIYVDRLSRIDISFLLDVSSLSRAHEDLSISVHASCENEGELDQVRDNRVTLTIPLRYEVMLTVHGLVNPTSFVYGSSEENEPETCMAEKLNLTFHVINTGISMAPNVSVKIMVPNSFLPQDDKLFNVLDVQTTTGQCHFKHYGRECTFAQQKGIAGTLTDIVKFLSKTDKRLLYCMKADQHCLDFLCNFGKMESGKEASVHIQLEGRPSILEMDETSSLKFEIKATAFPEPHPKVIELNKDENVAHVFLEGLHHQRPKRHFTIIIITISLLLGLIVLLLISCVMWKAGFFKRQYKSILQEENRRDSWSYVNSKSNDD
Sequence of integrin VLA-4 expressed on 5TGM1 murine myeloma cells (murine) (P09055 21-798, chain 2 of 2, further chain): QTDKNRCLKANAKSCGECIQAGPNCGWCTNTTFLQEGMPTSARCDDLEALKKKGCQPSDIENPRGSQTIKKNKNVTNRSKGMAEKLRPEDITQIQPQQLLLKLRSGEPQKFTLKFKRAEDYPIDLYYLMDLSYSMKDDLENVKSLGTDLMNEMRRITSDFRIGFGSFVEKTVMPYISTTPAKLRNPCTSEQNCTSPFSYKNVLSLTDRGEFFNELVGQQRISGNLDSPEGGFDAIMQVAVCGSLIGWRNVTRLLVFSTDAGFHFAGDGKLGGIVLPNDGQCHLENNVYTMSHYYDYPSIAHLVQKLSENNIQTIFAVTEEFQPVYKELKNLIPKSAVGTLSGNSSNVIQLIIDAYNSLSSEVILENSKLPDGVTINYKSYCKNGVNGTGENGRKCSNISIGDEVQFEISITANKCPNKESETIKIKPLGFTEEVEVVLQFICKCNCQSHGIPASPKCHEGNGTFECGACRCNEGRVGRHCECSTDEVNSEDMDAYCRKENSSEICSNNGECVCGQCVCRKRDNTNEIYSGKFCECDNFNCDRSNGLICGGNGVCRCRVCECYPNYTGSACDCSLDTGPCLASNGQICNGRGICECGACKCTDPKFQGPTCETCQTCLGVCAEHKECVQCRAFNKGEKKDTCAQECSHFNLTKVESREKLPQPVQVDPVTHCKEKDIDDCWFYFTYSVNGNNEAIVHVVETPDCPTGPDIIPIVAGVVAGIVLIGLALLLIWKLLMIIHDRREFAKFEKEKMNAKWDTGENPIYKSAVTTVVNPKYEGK

attachment of 5TGM1 cells to ST2 monolayers [1]: 50 to 80%
Molecule: mAb M/K-2.7 to murine VCAM-1 (antibody)

attachment of 5TGM1 cells to ST2 monolayers [2]: 50 to 80%
Molecule: mAb PS/2 to VLA-4 (antibody)

Molecule: Glu-Ile-Leu-Asp-Val (EILDV) [pentapeptide of the fibronectin CS-1 region]
inhibitory activity against fibronectin-dependent cell adhesion [3]: possessed inhibitory activity against fibronectin-dependent cell adhesion

Molecule: Leu-Asp-Val-Pro-Ser (LDVPS) [pentapeptide of the fibronectin CS-1 region]
inhibitory activity against fibronectin-dependent cell adhesion [3]: possessed inhibitory activity against fibronectin-dependent cell adhesion

Molecule: Arg-Cys-Asp-TPro-Cys
inhibition of VLA-4 and VLA-5 adhesion to fibronectin [4]: can inhibit both VLA-4 and VLA-5 adhesion to fibronectin

Molecule: N[C@@H](Cc1ccc(N(CCCl)CCCl)cc1)C(=O)O [melphalan]
serum IgG2 levels ([5]; melphalan alone 200 μg/mouse): significantly suppressed | serum IgG2 levels ([5]; melphalan alone 50 and 100 μg/mouse i.p. once a week): failed to suppress serum IgG2 levels | onset of hindleg paralysis ([6]; melphalan 100 μg/mouse and/or anti-α4Ab): had no effect on the onset of hindleg paralysis | onset of hindleg paralysis ([6]; melphalan alone 200 μg/mouse): significantly delayed the onset | mIgG2b plasma levels [7]: unaffected | percentage of GFP+ myeloma cells in blood [7]: unaffected | percentage of GFP+ myeloma cells in bone marrow [7]: Neither melphalan nor PS/2 mAb alone affected | percentage of GFP+ myeloma cells in spleen [7]: unaffected | serum IgG2b levels [8]: only modestly affected

B1: sVCAM-1: recombinant soluble VCAM-1 containing the 7 extracellular domains of human VCAM-1 (protein)
chain: FKIETTPESRYLAQIGDSVSLTCSTTGCESPFFSWRTQIDSPLNGKVTNEGTTSTLTMNPVSFGNEHSYLCTATCESRKLEKGIQVEIYSFPKDPEIHLSGPLEAGKPITVKCSVADVYPFDRLEIDLLKGDHLMKSQEFLEDADRKSLETKSLEVTFTPVIEDIGKVLVCRAKLHIDEMDSVPTVRQAVKELQVYISPKNTVISVNPSTKLQEGGSVTMTCSSEGLPAPEIFWSKKLDNGNLQHLSGNATLTLIAMRMEDSGIYVCEGVNLIGKNRKEVELIVQEKPFTVEISPGPRIAAQIGDSVMLTCSVMGCESPSFSWRTQIDSPLSGKVRSEGTNSTLTLSPVSFENEHSYLCTVTCGHKKLEKGIQVELYSFPRDPEIEMSGGLVNGSSVTVSCKVPSVYPLDRLEIELLKGETILENIEFLEDTDMKSLENKSLEMTFIPTIEDTGKALVCQAKLHIDDMEFEPKQRQSTQTLYVNVAPRDTTVLVSPSSILEEGSSVNMTCLSQGFPAPKILWSRQLPNGELQPLSENATLTLISTKMEDSGVYLCEGINQAGRSRKEVELIIQVTPKDIKLTAFPSESVKEGDTVIISCTCGNVPETWIILKKKAETGDTVLKSIDGAYTIRKAQLKDAGVYECESKNKVGSQLRSLTLDVQGRENNKDYFSPE
Rank ligand expression in 5TGM1 cells ([9]; 5TGM1 cells treated with sVCAM-1): they do so when treated with sVCAM-1 | Rank ligand mRNA in ST2 cells ([9]; conditioned medium from 5TGM1 cells treated with sVCAM-1): induced Rank ligand mRNA in ST2 cells | OC-like cell (TRAP(+)MNC) formation by conditioned medium from 5TGM1 cells treated with sVCAM-1 [10]: showed increased activity of OC-like cell formation; also recorded: increased TRAP(+)MNC formation | bone resorption by conditioned medium of 5TGM1 treated with sVCAM-1 [11]: increased bone resorption in fetal rat long bones in a dose-dependent manner | bone resorption, soluble VCAM-1 itself [11]: had no effects on bone resorption
